{"source": "patent US6894032B2", "about": "“Use of CDP-choline for the treatment of alcohol withdrawal syndrome” (Ferrer Internacional, S.A., priority 2000, dated 2005)", "key": {"[1]": {"system": "patients with alcohol withdrawal syndrome", "test": "Open, randomized, comparative clinical study of CDP-choline in alcohol withdrawal syndrome versus clomethiazole and vitamin B", "assay_type": "in vivo, humans", "conditions": "CDP-choline 500 mg i.m. every 12 h for 30 days, then 200 mg p.o. every 8 h, plus conventional therapy; versus conventional therapy alone; 20 patients per group; at 30 days", "procedure": "An open, randomized and comparative study on the conventional therapy of alcohol withdrawal syndrome was conducted in 40 patients. Patients were randomly distributed in two groups of 20. One of the groups was used as control and received clomethiazole and vitamin B1, B6 and B12. This treatment regimen was maintained for 8 days, and then patients were given diazepam until completion of treatment (60 days). The other group of patients received the same treatment regimen plus CDP-choline 500 mg i.m. every 12 h for the first 30 days and CDP-choline 200 mg p.o. every 8 h for the remaining 30 days."}, "[2]": {"system": "patients with alcohol withdrawal syndrome", "test": "Open clinical study of CDP-choline in alcohol withdrawal syndrome", "assay_type": "in vivo, humans", "procedure": "The progress of alcohol withdrawal syndrome was assessed in an open study conducted in 197 patients. CDP-choline was administered at doses of 500 mg/d i.m. or 600 mg/d p.o. for 60 days. […] At 60 days, 55.83% of patients had given up drinking alcohol and 31.97% of patients drank much less."}, "[3]": {"conditions": "197 patients, 500 mg/d i.m. or 600 mg/d p.o. for 60 days, at 60 days"}}, "data": [{"smiles": "C[N+](C)(C)CCOP(=O)(O)OP(=O)([O-])OC[C@H]1O[C@@H](n2ccc(N)nc2=O)[C@H](O)[C@@H]1O", "note": "[CDP-choline, cytidine diphosphate choline]", "values": [{"measurement": "tremor incidence (p<0.05), cramps (p<0.05), asthenia (p<0.05), emotional lability (p<0.01), nervousness (p<0.05) and social withdrawal (p<0.05)", "setting": "[1]", "value": "significant differences versus control"}, {"measurement": "anxiety, tremor, disorientation, insomnia, dysarthria, tendency to suicide and neuritic pains", "setting": "[2]; 500 mg/d i.m. or 600 mg/d p.o. for 60 days", "value": "significant improvement"}, {"measurement": "patients who drank much less", "setting": "[2]; [3]", "value": 31.97, "unit": "%"}, {"measurement": "patients who had given up drinking alcohol", "setting": "[2]; [3]", "value": 55.83, "unit": "%"}, {"measurement": "assessments of progress of alcohol withdrawal syndrome", "setting": "[2]; at 30 and 60 days following treatment, p<0.001", "value": "significant differences"}]}]}
